# Data reported in patent US20100197745A1, “GAMMA-GLUTAMYL TRANSPEPTIDASE INHIBITORS AND METHODS OF USE” (priority 2008, published 2010).
# “Also recorded” adds a separate entry of the source. Where two headings read alike, the source gives them in different places. Residues, ends and D or L forms follow the SMILES beside them.
# Tests used:
# [1] = molecular target: T1, GGT isolated from human kidney (Homo sapiens, UniProt P19440); test: GGT transpeptidation kinetic assay (GpNA / glycyl-glycine) with GGT isolated from human kidney; assay type: biochemical; settings: for Michaelis constant of the substrate (Kglygly, KGpNA): human kidney GGT
# T1 construct: GGT was isolated from human kidney; tissue National Disease Research Interchange, Philadelphia, PA; host or cells: human kidney, Triton X-100 extract of microsomes
# Method: (§1) An assay method was developed to screen for inhibitors of GGT. The assays were conducted in 96-well plates. The final volume in each well was 100 μL. The assay buffer contained: 100 mM Na2HPO4 pH 7.4, with 3.2 mM KCI, 1.8 mM KH2PO4, and 27.5 mM NaCl. Each reaction contained 1 mM L-glutamic acid γ-4-nitroanilide HCI (GpNA) and 40 mM glycyl-glycine (Gly-Gly)(19). GGT is expressed on the cell surface and the assay was initiated by addition of 10^4 786-O cells (ATCC CRL-1932, a GGT-positive human renal cell adenocarcinoma line).
# (§2) GGT was isolated from human kidney (National Disease Research Interchange, Philadelphia, PA), male Sprague-Dawley rat kidney and female Balb/c mouse kidney. Tissue was homogenized in 4 volumes of 25 mM Tris pH 7.5, containing 0.33 M sucrose, 0.2 mM EDTA, 1 μM leupeptin and 1.4 μg/ml aprotinin. A 9000 g supernatant was spun at 100,000 g for 1 h. The microsomal pellet was homogenized in 25 mM Tris pH 7.35, 0.5% Triton X-100, 1 μM leupeptin, 1.4 μg/ml aprotinin then centrifuged again at 100,000 g for 1 h. The supernatant was assayed for GGT activity, aliquoted, and stored at −80° C. until further use. All solutions were maintained at 4° C. throughout the isolation. The specific activities of GGT were 3.4, 7.4, and 1.5 units/mg protein for human, rat, and mouse preparations, respectively. Prior to use in the GGT assay, the enzyme was diluted in phosphate-buffered saline (PBS) containing 0.025% Triton X-100 and 0.19 m Units of enzyme were used per assay unless otherwise indicated.
# (§3) The concentrations of the substrate GpNA and the acceptor Gly-Gly were varied as indicated. Purified GGT was added to initiate the assay. The reaction was monitored as described for the high throughput screening.
# Initial velocity data were first analyzed graphically using double-reciprocal plots of initial velocities versus substrate concentration and suitable secondary plots.
# Data for competitive and uncompetitive inhibition were fitted using Equations 1 and 2.
# [2] = molecular target: T2, human GGT expressed in Pichia pastoris (Homo sapiens, UniProt P19440); test: GGT kinetic assay with purified human GGT expressed in Pichia pastoris; assay type: biochemical
# T2 construct: The soluble domain of human GGT (amino acids 28-569) was amplified by PCR; His6 (TEV protease-cleavable) (N, cleaved yes); made in house; host or cells: Pichia pastoris strain X-33 (pPICZαA, plasmid pMW-102), secreted
# Source text: The soluble domain of human GGT (amino acids 28-569) was amplified by PCR. The forward primer introduced a EcoRI restriction site and a TEV protease-cleavable N-terminal His6 tag, while the reverse primer introduced a NotI restriction site after the stop codon of genomic GGT. The PCR product was digested with EcoRI and Not I and inserted into the corresponding sites of pPICZαA (Invitrogen), generating plasmid pMW-102. This construct was amplified in E. coli DH5α cells. The fidelity of the recombinant ORF was verified by sequencing (Oklahoma Medical Research Foundation's DNA Sequencing Core Facility, Oklahoma City, Okla.). The SacI-linearized plasmid, pMW-102, was purified and transformed into wild-type Pichia pastoris strain X-33, selected and induced as recommended by Invitrogen. Secreted, recombinant, His6-tagged, human GGT was collected from the media with a Ni-NTA column. The hexahistidine tag was cleaved with His6-tagged TEV protease. […]
# The concentrations of the substrate GpNA and the acceptor Gly-Gly were varied as indicated. […] The reaction was monitored as described for the high throughput screening.
# Initial velocity data were first analyzed graphically using double-reciprocal plots of initial velocities versus substrate concentration and suitable secondary plots. […]
# 786-O cells = test: Cytotoxicity assay (MTT, 72 hr) in dividing 786-O cells; assay type: cell-based
# Method: 786-O (ATCC CRL-1932), a human renal cell adenocarcinoma line, was plated in DMEM supplemented with 5% FBS and penicillin/streptomycin (50 U/mL, 50 ug/mL) at 10^3 cells per well in 96-well plates. The next day the medium was changed to fresh DMEM containing FBS, antibiotics and the test compound. Equivalent concentrations of DMSO were added to control wells. Cell viability was determined by the MTT assay 72 hr after the addition of the test compound (20).
# A two-tailed t-test was used to detect significant differences between OU749 inhibition of human GGT and inhibition of GGT from other species.
# [3] = molecular target: T3, GGT isolated from rat kidney (Rattus norvegicus, UniProt P07314); test: Inhibition of GGT isolated from rat kidney; assay type: biochemical; settings: rat kidney GGT (FIG. 5A)
# T3 construct: male Sprague-Dawley rat kidney; from tissue; host or cells: male Sprague-Dawley rat kidney, Triton X-100 extract of microsomes
# Method: as §2, §3
# GGT from mouse kidney = molecular target: T4, GGT from mouse kidney (Mus musculus, UniProt Q60928); test: Inhibition of GGT isolated from mouse kidney; assay type: biochemical; settings: mouse kidney GGT (FIG. 5A)
# T4 construct: female Balb/c mouse kidney; from tissue; host or cells: female Balb/c mouse kidney, Triton X-100 extract of microsomes
# Method: as §2, §3
# [4] = molecular target: T5, GGT in 786-O and HK-2 cells (Homo sapiens, UniProt P19440); test: Inhibition of cell-surface GGT in human kidney cell lines; assay type: cell-based; settings: 786-O and HK-2 (FIG. 5B)
# T5 construct: GGT is expressed on the cell surface; CRL-2190 (HK-2); host or cells: 786-O human renal adenocarcinoma cells; HK-2 human proximal tubule cells
# Method: as §1
# (§4) LLC-PKI (ATCC CRL 1392), a pig kidney cell line, NRK-52E (ATCC CRL-1571), a normal rat kidney cell line, LLC-MK2 (ATCC CCL-7), a normal kidney monkey cell line, and 786-O cells were grown in complete Dulbecco's Modified Eagle's Medium (DMEM) supplemented with 5% FBS (Hyclone, Logan, Utah), and penicillin/streptomycin (50 U/mL, 50 μg/mL) (Invitrogen, Carlsbad, Calif.). NIH/3T3 cells transfected with cDNA encoding human GGT were described previously and were grown in DMEM/F12 containing 200 μg/mL of G418 (6). HK-2 (ATCC CRL-2190), a human cell line derived from immortalized normal proximal tubule cells, were grown in keratinocyte serum-free media (K-SFM) from ATCC (Manassas, Va.). The cells were trypsinized off the plates and suspended in PBS for the GGT assay.
# GGT in NRK-52E cells = molecular target: T6, GGT in NRK-52E cells (Rattus norvegicus, UniProt P07314); test: Inhibition of cell-surface GGT in rat kidney cell line; assay type: cell-based; settings: NRK-52E (FIG. 5B)
# T6 construct: NRK-52E (ATCC CRL-1571), a normal rat kidney cell line; host or cells: NRK-52E rat kidney cells
# Method: as §1, §4
# GGT in LLC-PK1 cells = molecular target: T7, GGT in LLC-PK1 cells (Sus scrofa, UniProt P20735); test: Inhibition of cell-surface GGT in pig kidney cell line; assay type: cell-based; settings: LLC-PK1 (FIG. 5B)
# T7 construct: LLC-PKI (ATCC CRL 1392), a pig kidney cell line; host or cells: LLC-PK1 pig kidney cells
# Method: as §1, §4
# GGT in LLC-MK2 cells = test: Inhibition of cell-surface GGT in monkey kidney cell line; assay type: cell-based; settings: LLC-MK2 (FIG. 5B)
# Method: as §1, §4
# [5] = molecular target: T8, human GGT expressed in mouse NIH3T3 fibroblasts (Homo sapiens, UniProt P19440); test: Inhibition of human GGT expressed in mouse NIH3T3 fibroblasts; assay type: cell-based; settings: NIH3T3 transfected with human GGT cDNA (FIG. 5B)
# T8 construct: expressed in transfected cells; host or cells: NIH/3T3 mouse fibroblasts, G418-selected
# Method: as §1, §4
# human kidney GGT = molecular target: T9, human kidney GGT (Homo sapiens, UniProt P19440); test: Glutathione degradation by human kidney GGT; assay type: biochemical
# T9 construct: GGT was isolated from human kidney; tissue National Disease Research Interchange, Philadelphia, PA; host or cells: human kidney, Triton X-100 extract of microsomes
# Method: (§5) An incubation mixture contained 1 mM glutathione, 40 mM glycyl-glycine, and inhibitor in the GGT assay buffer. Reactions were initiated with the addition of 1.9 mU of GGT and incubated at 37° C. The final volume of the reaction was 100 μL. Aliquots of the reaction mixture were removed at the specified time points, immediately acidified with an equal volume of cold 4.31% 5-sulfosalicylic acid, and maintained at 4° C. until glutathione concentration was determined by the method of Tietze (21).
# GGT from rat kidney = molecular target: T10, GGT from rat kidney (Rattus norvegicus, UniProt P07314); test: Glutathione degradation by rat kidney GGT; assay type: biochemical; settings: 1 mM glutathione, 40 mM glycylglycine (FIG. 6B)
# T10 construct: male Sprague-Dawley rat kidney; from tissue; host or cells: male Sprague-Dawley rat kidney, Triton X-100 extract of microsomes
# Method: as §5
# [6] = tested on: metastatic melanoma to the liver; settings: acivicin used to deplete tumor GSH in combination with aggressive therapy (ref. 4); cited from earlier work
# [7] = appKi obtained by varying GpNA, glygly fixed at 40 mM, uncompetitive, read-out: Inhibition of Transpeptidation (Alpha Ki)
# T9 sequence (P19440 1-380 limits assumed): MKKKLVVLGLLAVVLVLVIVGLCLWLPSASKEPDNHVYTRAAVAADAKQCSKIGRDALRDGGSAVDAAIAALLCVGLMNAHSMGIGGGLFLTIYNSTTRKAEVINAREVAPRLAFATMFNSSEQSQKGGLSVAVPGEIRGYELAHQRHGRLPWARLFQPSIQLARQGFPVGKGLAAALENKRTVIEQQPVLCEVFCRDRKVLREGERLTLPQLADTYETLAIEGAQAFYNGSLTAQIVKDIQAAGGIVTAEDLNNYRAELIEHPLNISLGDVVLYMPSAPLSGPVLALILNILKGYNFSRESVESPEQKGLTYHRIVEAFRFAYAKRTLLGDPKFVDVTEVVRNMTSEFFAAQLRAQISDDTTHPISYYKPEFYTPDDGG
# T9 sequence (P19440 381-569 limits assumed): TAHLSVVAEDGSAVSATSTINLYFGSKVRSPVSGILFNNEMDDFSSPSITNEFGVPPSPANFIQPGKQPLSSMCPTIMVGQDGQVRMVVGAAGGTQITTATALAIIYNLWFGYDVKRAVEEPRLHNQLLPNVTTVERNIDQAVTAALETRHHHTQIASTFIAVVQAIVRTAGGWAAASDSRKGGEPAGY
# T1 sequence (P19440 1-380 limits assumed): as the sequence (P19440 1-380 limits assumed) above
# T1 sequence (P19440 381-569 limits assumed): as the sequence (P19440 381-569 limits assumed) above
# T2 sequence (P19440 28-569): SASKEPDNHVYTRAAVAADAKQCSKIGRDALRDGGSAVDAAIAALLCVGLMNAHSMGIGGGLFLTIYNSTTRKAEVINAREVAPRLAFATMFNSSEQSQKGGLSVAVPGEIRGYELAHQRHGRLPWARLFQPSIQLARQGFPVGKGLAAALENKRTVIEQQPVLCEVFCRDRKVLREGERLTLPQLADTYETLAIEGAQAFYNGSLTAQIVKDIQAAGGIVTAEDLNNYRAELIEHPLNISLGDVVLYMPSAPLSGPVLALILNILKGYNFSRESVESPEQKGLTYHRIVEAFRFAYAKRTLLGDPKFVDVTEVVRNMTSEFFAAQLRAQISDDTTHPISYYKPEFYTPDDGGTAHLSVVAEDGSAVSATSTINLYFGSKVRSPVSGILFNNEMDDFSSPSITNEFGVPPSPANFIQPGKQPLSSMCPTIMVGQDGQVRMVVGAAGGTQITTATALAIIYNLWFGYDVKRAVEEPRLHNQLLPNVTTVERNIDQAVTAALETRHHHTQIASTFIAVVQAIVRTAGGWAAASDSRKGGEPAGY
# T10 sequence (P07314 whole entry): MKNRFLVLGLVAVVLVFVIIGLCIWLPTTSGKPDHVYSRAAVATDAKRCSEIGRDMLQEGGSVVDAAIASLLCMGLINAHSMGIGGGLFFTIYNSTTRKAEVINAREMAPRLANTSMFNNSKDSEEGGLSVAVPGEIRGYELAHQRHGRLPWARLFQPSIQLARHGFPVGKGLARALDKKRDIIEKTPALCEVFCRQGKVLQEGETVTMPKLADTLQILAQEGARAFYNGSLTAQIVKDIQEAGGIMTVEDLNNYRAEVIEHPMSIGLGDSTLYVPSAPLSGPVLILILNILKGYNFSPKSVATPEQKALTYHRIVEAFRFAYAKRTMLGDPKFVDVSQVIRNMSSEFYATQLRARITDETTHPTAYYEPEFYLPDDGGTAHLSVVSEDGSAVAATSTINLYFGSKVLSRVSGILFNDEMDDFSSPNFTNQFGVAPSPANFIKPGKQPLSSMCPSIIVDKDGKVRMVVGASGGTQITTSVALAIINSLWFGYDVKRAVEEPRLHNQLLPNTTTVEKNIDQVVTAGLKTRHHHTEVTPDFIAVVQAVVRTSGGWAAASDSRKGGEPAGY
# T7 sequence (P20735 whole entry): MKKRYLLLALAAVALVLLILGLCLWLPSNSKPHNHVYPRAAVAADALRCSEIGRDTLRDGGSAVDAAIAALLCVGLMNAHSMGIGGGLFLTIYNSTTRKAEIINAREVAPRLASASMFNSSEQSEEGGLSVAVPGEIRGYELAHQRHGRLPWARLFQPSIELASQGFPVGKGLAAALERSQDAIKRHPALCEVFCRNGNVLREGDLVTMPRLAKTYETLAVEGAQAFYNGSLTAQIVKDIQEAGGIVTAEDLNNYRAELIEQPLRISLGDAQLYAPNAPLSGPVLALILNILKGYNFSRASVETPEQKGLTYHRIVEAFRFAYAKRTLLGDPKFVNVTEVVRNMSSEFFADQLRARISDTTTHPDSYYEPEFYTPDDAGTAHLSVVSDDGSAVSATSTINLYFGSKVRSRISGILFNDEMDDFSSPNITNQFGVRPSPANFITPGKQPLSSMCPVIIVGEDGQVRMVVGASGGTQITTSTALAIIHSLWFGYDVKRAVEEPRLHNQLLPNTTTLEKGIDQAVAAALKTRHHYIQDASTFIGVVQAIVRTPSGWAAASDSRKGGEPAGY
# T4 sequence (Q60928 whole entry): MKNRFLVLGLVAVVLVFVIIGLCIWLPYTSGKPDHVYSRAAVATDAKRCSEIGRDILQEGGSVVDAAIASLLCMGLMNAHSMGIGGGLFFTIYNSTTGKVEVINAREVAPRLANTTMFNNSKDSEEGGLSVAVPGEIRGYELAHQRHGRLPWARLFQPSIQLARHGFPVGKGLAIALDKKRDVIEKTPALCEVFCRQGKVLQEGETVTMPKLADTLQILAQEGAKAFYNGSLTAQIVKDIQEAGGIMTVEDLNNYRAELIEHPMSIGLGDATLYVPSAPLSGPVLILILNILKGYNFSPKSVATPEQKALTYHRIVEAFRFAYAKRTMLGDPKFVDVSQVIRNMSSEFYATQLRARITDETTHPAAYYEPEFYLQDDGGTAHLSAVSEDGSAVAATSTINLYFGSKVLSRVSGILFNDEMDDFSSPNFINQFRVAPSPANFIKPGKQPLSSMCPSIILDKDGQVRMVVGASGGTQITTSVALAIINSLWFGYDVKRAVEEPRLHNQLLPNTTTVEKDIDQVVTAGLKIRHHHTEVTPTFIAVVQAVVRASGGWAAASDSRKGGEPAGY
# T6 sequence (P07314 whole entry): as the sequence (P07314 whole entry) above
# T3 sequence (P07314 whole entry): as above
compound,measurement,setting,value
"COc1ccc(Cc2nnc(NS(=O)(=O)c3ccccc3)s2)cc1 [Compound 3, N-[5-(4-methoxybenzyl)-1,3,4-thiadiazol-2-yl]benzenesulfonamide]",inhibition of GGT isolated from human kidney,"[1]; 0-125 μM, 40 mM glycylglycine (FIG. 3)",inhibited GGT isolated from human kidney in a dose-dependent manner
same,type of inhibition with respect to GpNA,"[1]; GpNA varied, glygly 40 mM",uncompetitive
same,Ki,[1]; [7],73.8 ± 2.5 µM
same,Ki,"[1]; fit of data of FIGS. 4A-D to the equation for noncompetitive inhibition, read-out: Ki binding to the E form of the enzyme",> 200 µM
same,type of inhibition with respect to glygly,"[1]; glygly varied, GpNA 3 mM",competitive
same,Ki,"[1]; glygly varied, GpNA maintained at 3 mM, read-out: Ki, competitive with respect to glygly (intrinsic value)",17.6 ± 3.8 µM
same,weaker binding to the E form,[1]; relative to binding in the presence of the γ-glutamyl moiety,> 10 fold
same,Ki,"[2]; GpNA varied, 40 mM glycylglycine, read-out: appKi obtained varying GpNA",58.2 ± 1.6 µM
same,Ki,"[2]; glygly varied, 3 mM GpNA, read-out: appKi as a competitive inhibitor of glygly",25 ± 2 µM
same,fold less toxic than acivicin,786-O cells; 786-O cells in log growth,more than 150 fold
same,toxicity relative to acivicin,786-O cells; 786-O cells in log growth,at least an order of magnitude less toxic than acivicin
same,fold less toxic than acivicin,"786-O cells; 786-O cells in log growth, listed as compound 3",150 fold
same,LD50,"786-O cells; dividing 786-O cells, 3 days with test compound, MTT",128 µM
same,fold less potent than against GGT isolated from human kidney,[3],7 fold
same,fold less potent than against GGT isolated from human kidney,GGT from mouse kidney,10 fold
same,inhibition of GGT in human kidney cell lines,[4],dose-dependent inhibition
same,inhibition of GGT in rat kidney cell line,GGT in NRK-52E cells,only weakly inhibited
same,inhibition of GGT in pig kidney cell line,GGT in LLC-PK1 cells,not inhibited
same,inhibition of GGT in monkey kidney cell line,GGT in LLC-MK2 cells,only weakly inhibited
same,inhibition of human GGT expressed in mouse cells,[5],inhibited by compound 3 to the same extent as human GGT expressed in other human cells
same,inhibition of cleavage of glutathione,"human kidney GGT; 1 mM glutathione, 40 mM glycylglycine, 62.5-500 uM compound (FIG. 6A)",inhibited the cleavage of glutathione in a dose-dependent manner; also recorded: inhibited glutathione breakdown by human GGT
same,inhibition of cleavage of oxidized glutathione (GSSG),"human kidney GGT; human GGT, data not shown",inhibited the cleavage of oxidized glutathione
same,inhibition of degradation of glutathione,GGT from rat kidney,unable to inhibit; also recorded: did not inhibit
O=S(=O)(Nc1nnc(Cc2ccccc2)s1)c1ccc(Cl)cc1 [Compound 4],Ki,[1]; [7],75.9 ± 1.7 µM
"NCC(=O)NCC(=O)O [glygly, glycyl-glycine, reference compound] (H-Gly-Gly-OH)","Michaelis constant of the substrate (Kglygly, KGpNA)",[1],11.4 ± 1.2 mM
COc1ccc(S(=O)(=O)Nc2nnc(Cc3ccc(OC)c(OC)c3)s2)cc1 [Compound 9],Ki,[1]; [7],1110 µM
COc1ccc(Cc2nnc(NS(=O)(=O)c3ccc([N+](=O)[O-])cc3)s2)cc1 [Compound 7],Ki,[1]; [7],114 ± 8.4 µM
"N[C@@H](CCC(=O)Nc1ccc([N+](=O)[O-])cc1)C(=O)O [GpNA, L-glutamic acid γ-4-nitroanilide HCI, reference compound]","Michaelis constant of the substrate (Kglygly, KGpNA)",[1],1.07 ± 0.04 mM
"N[C@H](C(=O)O)[C@@H]1CC(Cl)=NO1 [Acivicin, acivicin, reference compound]",LD50,"786-O cells; human, 72 h",0.81 µM
same,"complete cure of metastatic melanoma to the liver, share of test animals",[6],90%
